These results are taken from US20100317647A1 (priority 2009, published 2010).

The target of the experiment is human Cat S (Homo sapiens, UniProt P25774). Put plainly: Cathepsin enzyme inhibition assay (fluorogenic peptide substrate cleavage). In kind it is biochemical. Particulars: human Cat S 1 nM; substrate Z-Val-Val-Arg-AMC 20 μM; pH 6.5; fluorescence over 20 minutes. The procedure: Cathepsin Enzyme Inhibition Assay
Chain of human Cat S (P25774 115-331): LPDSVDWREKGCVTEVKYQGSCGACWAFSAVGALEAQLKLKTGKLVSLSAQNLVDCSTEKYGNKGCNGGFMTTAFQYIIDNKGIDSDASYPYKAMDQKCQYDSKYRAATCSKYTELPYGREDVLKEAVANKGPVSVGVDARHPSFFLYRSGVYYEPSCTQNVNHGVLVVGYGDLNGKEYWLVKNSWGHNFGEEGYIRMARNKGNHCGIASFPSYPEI
Enzyme activity is measured by observing the increase in fluorescence intensity caused by cleavage of a peptide substrate containing a fluorophore whose emission is quenched in the intact peptide.
Assay buffer: 100 mM potassium phosphate pH 6.5, EDTA-Na 5 mM, Triton X-100 0.001%, DTT 5 mM. Enzymes (all at 1 nM): human and mouse Cathepsin S, Cat K, Cat B, Cat L. Substrate (20 μM): Z-Val-Val-Arg-AMC, except for Cat K which uses Z-Leu-Arg-AMC (both from Bachem).
AMC=7-Amino-4-Methyl-Coumarin.
DTT=dithiothreitol. Final volume: 100 μL.
Excitation 360 nm, Emission 465 nm.
Enzyme is added to the substance dilutions in 96-well microtitre plates and the reaction is started with substrate. Fluorescence emission is measured over 20 minutes, during which time a linear increase is observed in the absence of inhibitor. IC50 are calculated by standard methods. Inhibition of human Cat S, mouse Cat S, human Cat K, mouse Cat K, human Cat B, mouse Cat B, human Cat L and mouse Cat L have been measured separately. The results obtained for human Cat S are expressed in the following table.
Take `N#CC1(NC(=O)[C@@H]2C[C@@H](S(=O)(=O)c3ccc(Br)cc3C(F)(F)F)C[C@H]2OC2CCCC2)CC1` (racemic) [Example 195, (1R,2R,4R) and (1S,2S,4S)-4-(4-Bromo-2-trifluoromethyl-benzenesulfonyl)-2-cyclopentyloxy-cyclopentanecarboxylic acid (1-cyano-cyclopropyl)-amide]: the IC50 (as a rule, the concentration that gives 50% inhibition) is 0.917 nM.

As to `N#CC1(NC(=O)[C@@H]2C[C@@H](S(=O)(=O)c3ccccc3)C[C@H]2C(=O)N2CCCC2)CC1` [Example 23, (1R,2R,4R)-4-Benzenesulfonyl-2-(pyrrolidine-1-carbonyl)-cyclopentanecarboxylic acid (1-cyano-cyclopropyl)-amide], inhibition was half-maximal at 1.5 nM (IC50).

The compound `N#CC1(NC(=O)[C@H]2C[C@@H](S(=O)(=O)c3ccccc3Cl)C[C@@H]2O)CC1` (racemic) [Example 52, (1S,2S,4R) and (1R,2R,4S)-4-(2-Chloro-benzenesulfonyl)-2-hydroxy-cyclopentanecarboxylic acid (1-cyano-cyclopropyl)-amide] registered an IC50 of 11700 nM.

Compound `N#CC1(NC(=O)[C@@H]2C[C@@H](S(=O)(=O)c3ccccc3Cl)C[C@H]2OCc2ccc(Cl)c(F)c2)CC1` (racemic) [Example 249, (1R,2R,4R) and (1S,2S,4S)-4-(2-Chloro-benzenesulfonyl)-2-(4-chloro-3-fluoro-benzyloxy)-cyclopentanecarboxylic acid (1-cyano-cyclopropyl)-amide] came in with an IC50 of 6.95 nM.

Compound `CCOC1CN(C(=O)[C@@H]2C[C@H](S(=O)(=O)c3ccccc3)C[C@H]2C(=O)NC2(C#N)CC2)C1` [Example 21, (1R,2R,4R)-4-Benzenesulfonyl-2-(3-ethoxy-azetidine-1-carbonyl)-cyclopentanecarboxylic acid (1-cyano-cyclopropyl)-amide] gave an IC50 of 4.9 nM.

The compound `N#CC1(NC(=O)[C@@H]2C[C@@H](S(=O)(=O)c3ccccc3C(F)(F)F)C[C@H]2Oc2ccccc2)CC1` (racemic) [Example 231, (1R,2R,4R) and (1S,2S,4S)-2-Phenoxy-4-(2-trifluoromethyl-benzenesulfonyl)-cyclopentanecarboxylic acid (1-cyano-cyclopropyl)-amide] registered an IC50 of 1.25 nM.

In turn, `N#CC1(NC(=O)[C@H]2CC[C@H](S(=O)(=O)c3ccc(OCC(F)(F)F)cc3Cl)C2)CC1` (single isomer, unassigned) [Example 98] came in with an IC50 of 160 nM.

In the case of `N#CC1(NC(=O)[C@@H]2C[C@@H](S(=O)(=O)c3ccccc3Cl)C[C@H]2OCc2c(F)cc(Cl)cc2F)CC1` (racemic) [Example 251, (1R,2R,4R) and (1S,2S,4S)-4-(2-Chloro-benzenesulfonyl)-2-(4-chloro-2,6-difluoro-benzyloxy)-cyclopentanecarboxylic acid (1-cyano-cyclopropyl)-amide], the midpoint of inhibition, the IC50, lay at 6.11 nM.

The compound `CCO[C@@H]1C[C@H](S(=O)(=O)c2ccc(-c3cnn(C)c3)cc2C(F)(F)F)C[C@H]1C(=O)NC1(C#N)CC1` (racemic) [Example 116, (1R,2R,4R) and (1S,2S,4S)-2-Ethoxy-4-[4-(1-methyl-1H-pyrazol-4-yl)-2-trifluoromethyl-benzenesulfonyl]-cyclopentanecarboxylic acid (1-cyano-cyclopropyl)-amide] yielded an IC50 of 0.3 nM.

In turn, `CC(C)O[C@@H]1C[C@H](S(=O)(=O)c2ccc(-c3cnn(C)c3)cc2C(F)(F)F)C[C@H]1C(=O)NC1(C#N)CC1` (racemic) [Example 142, (1R,2R,4R) and (1S,2S,4S)-2-Isopropoxy-4-[4-(1-methyl-1H-pyrazol-4-yl)-2-trifluoromethyl-benzenesulfonyl]-cyclopentanecarboxylic acid (1-cyano-cyclopropyl)-amide] yielded an IC50 of 0.2 nM.

For `CO[C@@H]1C[C@H](S(=O)(=O)c2ccc(Br)cc2C(F)(F)F)C[C@H]1C(=O)NC1(C#N)CC1` (single isomer, unassigned) [Example 137], half-maximal inhibition (IC50) required 4.8 nM.

For `N#CC1(NC(=O)[C@@H]2C[C@@H](S(=O)(=O)c3ccc(Br)cc3Cl)C[C@H]2C(=O)N2CCC(F)(F)C2)CC1` [Example 187, (1R,2R,4R)-4-(4-Bromo-2-chloro-benzenesulfonyl)-2-(3,3-difluoro-pyrrolidine-1-carbonyl)-cyclopentanecarboxylic acid (1-cyano-cyclopropyl)-amide], the midpoint of inhibition, the IC50, lay at 1.07 nM.

Take `CO[C@@H]1C[C@H](S(=O)(=O)c2ccc(-c3cnn(CC(=O)O)c3)cc2C(F)(F)F)C[C@H]1C(=O)NC1(C#N)CC1` (racemic) [Example 185, (4-{4-[(1R,3R,4R) and (1S,3S,4S)-3-(1-Cyano-cyclopropylcarbamoyl)-4-methoxy-cyclopentanesulfonyl]-3-trifluoromethyl-phenyl}-pyrazol-1-yl)-acetic acid]: it took 0.725 nM to reach half-maximal inhibition (IC50).

Compound `N#CC1(NC(=O)[C@@H]2C[C@@H](S(=O)(=O)c3ccccc3)C[C@H]2C(=O)N2CCNCC2)CC1` [Example 14, (1R,2R,4R)-4-Benzenesulfonyl-2-(piperazine-1-carbonyl)-cyclopentanecarboxylic acid (1-cyano-cyclopropyl)-amide] had an IC50 of 10.9 nM.

`N#CC1(NC(=O)[C@@H]2C[C@@H](S(=O)(=O)c3ccc(-c4cncc(-c5cnc(Cl)cn5)n4)cc3C(F)(F)F)C[C@H]2C(=O)N2CC(F)(F)C2)CC1` [Example 126, (1R,2R,4R)-4-[4-(5′-Chloro-[2,2]bipyrazinyl-6-yl)-2-trifluoromethyl-benzenesulfonyl]-2-(3,3-difluoro-azetidine-1-carbonyl)-cyclopentanecarboxylic acid (1-cyano-cyclopropyl)-amide]: the midpoint of inhibition, the IC50, lay at 0.6 nM.

The compound `N#CC1(NC(=O)[C@H]2CC[C@@H](S(=O)(=O)c3ccc(-n4cccn4)cc3Cl)C2)CC1` (single isomer, unassigned) [Example 101] showed an IC50 of 610 nM.

`CO[C@@H]1C[C@H](S(=O)(=O)c2ccc(-c3ccc(S(N)(=O)=O)cc3)cc2C(F)(F)F)C[C@H]1C(=O)NC1(C#N)CC1` (racemic) [Example 76, (1R,2R,4R) and (1S,2S,4S)-2-Methoxy-4-(4′-sulfamoyl-3-trifluoromethyl-biphenyl-4-sulfonyl)-cyclopentanecarboxylic acid (1-cyano-cyclopropyl)-amide] gave an IC50 of 0.6 nM.

For the compound `N#CC1(NC(=O)[C@@H]2C[C@@H](S(=O)(=O)c3ccccc3Cl)C[C@H]2COc2ccc(Cl)cc2)CC1` (single isomer, unassigned) [Example 70], the IC50 came to 3.4 nM.

Turning to `N#CC1(NC(=O)[C@@H]2C[C@@H](S(=O)(=O)c3ccccc3C(F)(F)F)C[C@H]2OC2CCOCC2)CC1` (racemic) [Example 175, (1R,2R,4R) and (1S,2S,4S)-2-(Tetrahydro-pyran-4-yloxy)-4-(2-trifluoromethyl-benzenesulfonyl)-cyclopentanecarboxylic acid (1-cyano-cyclopropyl)-amide], the IC50 turned out to be 0.48 nM.

As to `N#CC1(NC(=O)[C@@H]2C[C@H](S(=O)(=O)c3ccccc3Cl)C[C@H]2CN2CCC(c3ccc(F)cc3)CC2)CC1` [Example 148, (1R,2R,4R)-4-(2-Chloro-benzenesulfonyl)-2-[4-(4-fluoro-phenyl)-piperidin-1-ylmethyl]-cyclopentanecarboxylic acid (1-cyano-cyclopropyl)-amide], half-maximal inhibition (IC50) was put at 515 nM.

`CC(C)O[C@@H]1C[C@H](S(=O)(=O)c2ccc(Br)cc2C(F)(F)F)C[C@H]1C(=O)NC1(C#N)CC1` (racemic) [Example 112, (1R,2R,4R) and (1S,2S,4S)-4-(4-Bromo-2-trifluoromethyl-benzenesulfonyl)-2-isopropoxy-cyclopentanecarboxylic acid (1-cyano-cyclopropyl)-amide] came in with an IC50 of 0.6 nM.

The compound `COC[C@@H]1C[C@@H](S(=O)(=O)c2ccccc2Cl)C[C@H]1C(=O)NCC#N` (single isomer, unassigned) [Example 104] displayed an IC50 of 1200 nM.

As for `CO[C@@H]1C[C@H](S(=O)(=O)c2ccc(-c3ccc(C)nc3)cc2C(F)(F)F)C[C@H]1C(=O)NC1(C#N)CC1` (racemic) [Example 81, (1R,2R,4R) and (1S,2S,4S)-2-Methoxy-4-[4-(6-methyl-pyridin-3-yl)-2-trifluoromethyl-benzenesulfonyl]-cyclopentanecarboxylic acid (1-cyano-cyclopropyl)-amide], the IC50 came to 0.6 nM.

For the compound `CC(C)(C)NC(=O)[C@@H]1C[C@H](S(=O)(=O)c2ccccc2)C[C@H]1C(=O)NC1(C#N)CC1` [Example 28, (1R,2R,4S)-4-Benzenesulfonyl-cyclopentane-1,2-dicarboxylic acid 1-tert-butylamide 2-[(1-cyano-cyclopropyl)-amide]], 25.5 nM corresponded to half-maximal inhibition (IC50).

Consider `CO[C@@H]1C[C@H](S(=O)(=O)c2ccc(-c3cncc(S(C)(=O)=O)c3)cc2C(F)(F)F)C[C@H]1C(=O)NC1(C#N)CC1` (racemic) [Example 83, (1R,2R,4R) and (1S,2S,4S)-4-[4-(5-Methanesulfonyl-pyridin-3-yl)-2-trifluoromethyl-benzenesulfonyl]-2-methoxy-cyclopentanecarboxylic acid (1-cyano-cyclopropyl)-amide], for which the IC50 came out at 0.2 nM.

In turn, `CN1CCN(c2ccc(S(=O)(=O)[C@@H]3C[C@@H](C(=O)NC4(C#N)CC4)[C@H](C(=O)N4CC(F)(F)C4)C3)c(Cl)c2)CC1` [Example 158, (1R,2R,4R)-4-[2-Chloro-4-(4-methyl-piperazin-1-yl)-benzenesulfonyl]-2-(3,3-difluoro-azetidine-1-carbonyl)-cyclopentanecarboxylic acid (1-cyano-cyclopropyl)-amide] had an IC50 of 0.63 nM.
